Here are results for three substances from US20240285740A1, “COMPOSITIONS AND METHODS FOR TREATING CANCER” (Dana-Farber Cancer Institute, Inc., priority 2021, published 2024).

The subject of assay [1] is T cells (CD3+, CD4+ Th, CD8+ Tc) in BMMC from MM patients. The assay can be described thus: CFSE proliferation of T cells in MM patient BMMC treated with checkpoint inhibitor, immune agonist or LAG3-ligand antibody. Format: cell-based, human. Particulars: for CD3+ T cell proliferation: BMMC, newly diagnosed, relapsed or relapsed/refractory MM (N=10), vs untreated control. The text has this: BM aspirates and peripheral blood (PB) samples were obtained from patients with MGUS [BM: N=5, PB: N=5] and SMM [BM: N=5, PB: N=5] and patients with MM (Newly Diagnosed [BM: N=15, PB: N=10], Relapsed [BM: N=12, PB: N=12], Relapsed/Refractory [BM: N=15, PB: N=12]) after informed consent, in accordance with the Declaration of Helsinki, and with approval by the Institutional Review Board at Dana-Farber Cancer Institute (Boston, MA). In addition, healthy individuals BM [N=5] or leukapheresis [N=5] products were purchased from either AllCells (Alameda, CA) or the Blood Donor Center at Boston Children's Hospital (Boston, MA), respectively. Mononuclear cells were isolated from BM (BMMC) or PB (PBMC) by standard density gradient centrifugation using Ficoll-Paque™ Plus (Amersham Pharmacia Biotech AB, Uppsala Sweden) and used in these studies.
(§1) Proliferation of specific cell populations was evaluated using CFSE-based proliferation assays. In brief, MM patient BMMC, PBMC or XBP1/CD138/CS1-specific CTL were labeled with CFSE (Molecular Probes, Eugene, OR) and incubated with clinical grade checkpoint inhibitor (1 μg/ml) or immune agonist (1 μg/ml) in the presence of low dose (20 units) IL-2, with or without stimulation with irradiated MM cells (patients' cells, cell line) or MM lysates. After 4-7 days incubation, the cells were stained with LIVE/DEAD reagent and specific fluorochrome conjugated mAbs, washed, fixed in 2% paraformaldehyde, and acquired using a LSRII Fortessa™ flow cytometer.

The test system of assay [2] is T cells in BMMC from MM patients. The assay can be described thus: CFSE T cell proliferation in MM patient BMMC stimulated with irradiated tumor cells or tumor lysates. The assay is classed as cell-based, human. Particulars: BMMC (N=5), FIG. 9; for enhancement of tumor-lysate-induced T cell response: checkpoint inhibitors (anti-LAG3>anti-PD1) more than immune agonists. Here is the method:
(§2) Multiple myeloma (MM) cell lines U266, McCAR, HSB2, MMIS, RPMI8226, OPM2, H929, ANBL6, OCIMY5, AMO1 and KMS11 were obtained from ATCC (Manassas, VA). The T2 cell line, a human B and T cell hybrid expressing HLA-A2 molecules, was provided by Dr. J. Molldrem (University of Texas M. D. Anderson Cancer Center, Houston, TX). The cell lines were cultured in DMEM media supplemented with 10% fetal calf serum (FCS; BioWhittaker, Walkersville, MD), 100 IU/ml penicillin, and 100 μg/ml streptomycin (Gibco-Life Technologies, Rockville, MD). A mixture of ten MM cell lines was utilized to prepare tumor cell lysates by repeated (10×) cycles of freeze (−140° C.)/thaw (37° C.) or prepared as irradiated (20 Gy) whole tumor cells as sources of MM antigen stimulation.
as §1

Assay [3] relates to PD1+ or LAG3+ T cells in BMMC from MM patients. The assay can be described thus: Checkpoint (PD1, LAG3) expression on T cells in MM patient BMMC after modulator treatment, flow cytometry. Particulars: for upregulation / induction of other immune checkpoints: MM patient BMMC, among clinical grade checkpoint inhibitors and immune agonists evaluated (discussion). Format: cell-based, human. The method, then: (§3) BMMC or PBMC from patients with MGUS, SMM, MM or healthy individuals were evaluated by flow cytometry analyses by staining cells with fluorochrome-conjugated mAb specific to each cell surface antigen for 30 minutes at room temperature, followed by LIVE/DEAD reagent staining to confirm viability. Regulatory T cells (Treg) were identified by cell surface staining (CD3, CD4, CD8, CD25), permeabilized using Foxp3/Transcription Factor Staining Buffer Set (eBioscience) and stained for intracellular FOXP3 expression. Myeloid-derived-suppressor cells (MDSC) were identified as G-type MDSC (CD11b+CD33+ HLA-DRlow/−CD14−CD15+) and M-type MDSC (CD11b+CD33+ HLA-DRlow/−CD14+CD15−). Cells were acquired using a BD Fortessa X-20 (BD Biosciences) flow cytometer, and the data was analyzed using DIVA™ v8.0 (BD) or FlowJo v10.0.7 (Tree star, Ashland, OR) software.
as §1

Assay [4] relates to CD4+ Treg in BMMC from MM patients. The assay can be described thus: Treg proliferation in MM patient BMMC after modulator treatment. The assay is classed as cell-based, human. Particulars: for Treg proliferation: BMMC of MM patients (N=5), single agents compared, FIG. 5B. Here is the method:
as §3, §1

Assay [5] has as its system XBP1/CD138/CS1-specific CD8+ CTL stimulated with U266 MM cells. Briefly: CFSE proliferation of XBP1/CD138/CS1-specific CTL in response to HLA-A2+ U266 MM cells. The assay is classed as cell-based, human. Particulars: CTL (N=5) treated with antibody, α-LAG3>α-PD-1, FIG. 6B. Here is the method: (§4) XBP1/CD138/CS1-specific CTL were generated ex vivo after four cycles of weekly stimulation of HLA-A2^+ CD3^+ T lymphocytes (N=5) with a cocktail of four peptides containing heteroclitic XBP1 US184-192 (YISPWILAV (SEQ ID NO: 24)), heteroclitic XBP1 SP367-375 (YLFPQLISV (SEQ ID NO: 25)), native CD138260-268 (GLVGLIFAV (SEQ ID NO: 26)) and native CS1239-247 (SLFVLGLFL (SEQ ID NO: 27)), as described previously.
as §1

For assay [6], the target named is human Galectin-3 (GAL3) (human) (UniProt P17931). The assay can be described thus: cell-based or functional assay.
Sequence of UniProt P17931 (P17931 2-250 limits assumed): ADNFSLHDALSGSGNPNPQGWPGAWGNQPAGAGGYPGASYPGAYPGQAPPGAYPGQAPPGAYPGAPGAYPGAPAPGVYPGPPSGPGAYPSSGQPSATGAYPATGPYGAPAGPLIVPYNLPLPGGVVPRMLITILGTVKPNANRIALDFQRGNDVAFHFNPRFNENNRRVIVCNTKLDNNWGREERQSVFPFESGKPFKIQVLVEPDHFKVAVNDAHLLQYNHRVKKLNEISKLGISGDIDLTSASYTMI
For assay [7], the system named is CD3+ T cells in PBMC from MM patients. Briefly: CFSE T cell proliferation in MM patient PBMC with or without MM lysate stimulation. Particulars: newly diagnosed (N=6) or relapsed (N=3) MM, presence or absence of MM lysate, vs anti-PD1, anti-OX40, anti-GITR, FIG. 1C. Format: cell-based, human. The method, then: as §2
BM aspirates and peripheral blood (PB) samples were obtained from patients with MGUS [BM: N=5, PB: N=5] and SMM [BM: N=5, PB: N=5] and patients with MM (Newly Diagnosed [BM: N=15, PB: N=10], Relapsed [BM: N=12, PB: N=12], Relapsed/Refractory [BM: N=15, PB: N=12]) after informed consent, in accordance with the Declaration of Helsinki, and with approval by the Institutional Review Board at Dana-Farber Cancer Institute (Boston, MA). […]
Proliferation of specific cell populations was evaluated using CFSE-based proliferation assays. […]

For the next assay, the system named is U266 MM cells. Briefly: CD107a degranulation and intracellular IFN-γ production of XBP1/CD138/CS1-specific CTL against MM. The assay is classed as cell-based, human. Particulars: CTL treated 1 μg/ml antibody 24 hours, then cultured with U266; FIG. 6C. The method, then:
as §4
The anti-tumor activities of MM-specific CTL were measured by CD107a degranulation and IFN-γ production against MM. In brief, XBP1/CD138/CS1-specific CTL were treated with clinical grade anti-PD1 or anti-LAG3 (1 μg/ml) for 24 hours. The cells were then cultured with U266 MM cells in the presence of CD107a mAb. After 1-hour incubation, Brefeldin A (BD) and Monensin (BD) were added, and cultures were incubated for an additional 5 hours. Cells were harvested, washed in PBS, stained with LIVE/DEAD reagent, washed, incubated with fluorochrome conjugated mAb to identify T cells, allowing for assays of their functional activity against MM. After surface staining, cells were fixed/permeabilized, stained for Th1 cytokines, washed with Perm/Wash solution (BD), and analyzed by flow cytometry. MP-CTL specific CD107a degranulation and Th1 cytokine production were analyzed using DIVA™ v8.0 or FlowJo v10.0.7 software.

Where [8] appears, read: BMMC of MM patients (N=10), antibody 1 μg/ml, low dose IL-2, FIG. 1B.
[9] abbreviates: antibody 1 μg/ml, low dose IL-2, FIG. 1B.
Setting [10] is: BMMC of MM patients (N=10), FIG. 5A.

Entries after “also recorded” stand apart in the source; their conditions may differ.

Turning to “anti-PD1: Clinical grade checkpoint inhibitor, anti-PD1 antibody Nivolumab, provided by Bristol-Myers Squibb”, the “proliferation of CD4+ Th cells” value in assay [1] (setting [8]) was “significant increase”. In assay [1] (setting [9]), the “CD3+ T cell proliferation” value is recorded as “triggered”. For the same substance, the “enhancement of tumor-lysate-induced T cell response” value in assay [2] is on record as “enhanced to a greater extent”. In assay [3] (setting [10]), the “proliferation of T cells expressing an alternative immune checkpoint” value is recorded as “to a greater extent than anti-LAG3 treatment”; the “upregulation of PD1 and LAG3 expression on T cells” value is given as “induce upregulation”. Besides, the “upregulation / induction of other immune checkpoints” value (“upregulation / induction” for short) in assay [3] is “highest level”. Also, in assay [3] (listed as anti-PD-1 antibody), the “upregulation / induction” value was “upregulate”. Moreover, the Treg proliferation entry in assay [4] was “high induction; also recorded: highest level”. Further, the “expansion of Treg cells, single agent” value in assay [4] (BMMC, relapsed/refractory MM (N=3), FIG. 5C) is recorded as “significant (*p<0.05) expansion”. In addition, in assay [5], the “proliferation of total CD8+ T cells and Central Memory, Effector Memory, CD28+ and CD38+ CTL subsets” value is “significantly increase”.

As to “Anti-GAL3 antibody (BD, Clone B2C10; Cat Nos.: 565676-565678, and 565682)”, in assay [6], the proliferation of CD4+Th cells in newly diagnosed MM patient BMMC, Patient #1 is 13%; the proliferation of CD4+Th cells in newly diagnosed MM patient BMMC, Patient #2 was 9%; the proliferation of CD8+Tc cells in newly diagnosed MM patient BMMC, Patient #1 stood at 45%; the proliferation of CD8+Tc cells in newly diagnosed MM patient BMMC, Patient #2 is 38%.

Consider “anti-LAG3: Clinical grade checkpoint inhibitor, anti-LAG3 antibody Relatlimab, provided by Bristol-Myers Squibb”, for which, in assay [1] (setting [8]), the “proliferation of CD4+ Th cells” value was “significant increase; also recorded: highest proliferation” and the “proliferation of CD8+ Tc cells” value is “increased; also recorded: highest proliferation”. Further, the “CD3+ T cell proliferation” value in assay [1] (setting [9]) is on record as “triggered”. For the same substance, the “effector T cell proliferation” value in assay [1] (among clinical grade checkpoint inhibitors and immune agonists evaluated (discussion)) is “most robust”. In addition, the “T cell responses in BMMC/PBMC from MM patients compared with healthy donors” value in assay [1] (discussion) is on record as “significantly increased”. Further, the T cell proliferation entry in assay [7] is on record as “significantly (*p<0.05) higher”. In assay [2], the “enhancement of tumor-lysate-induced T cell response” value was “enhanced to a greater extent”. For the same substance, the T cell proliferation result in assay [2] (mixture of ten MM cell lines as irradiated whole cells or tumor lysates, vs other immune modulators) is on record as “significantly higher”. For the same substance, the “upregulation of PD1 and LAG3 expression on T cells” value in assay [3] (setting [10]) is “induce upregulation”. In addition, the “upregulation / induction” value in assay [3] is listed as “lowest level”. Further, the “impact of treatment on G-type MDSC and Tregs” value in assay [4] (BM milieu of MM patients (discussion)) is given as “low”. In addition, in assay [4], the Treg proliferation entry was “lowest induction; also recorded: lowest level”. For the same substance, in assay [5], the “proliferation of total CD8+ T cells and Central Memory, Effector Memory, CD28+ and CD38+ CTL subsets” value is listed as “significantly increase; also recorded: enhanced proliferation”. Also, in the assay on U266 MM cells, the CD107a degranulation result is “highest anti-tumor activities” and the IFN-γ production entry was “highest anti-tumor activities”.
